Experimental data as given in ChEMBL document CHEMBL4393732, “Influence of nisin hinge-region variants on lantibiotic immunity and resistance proteins” (Bioorg Med Chem, 2019).
Calls of active or inactive are those of the source. The calls are words filed in the database; no cut-off is given here.

Legend:
[1] = tested on: Lactococcus lactis; test: Growth inhibition of nisin-sensitive Lactococcus lactis NZ9000Cm incubated for 5 hrs by optical density based plate reader assay; type: functional, organism-based
[2] = tested on: Lactococcus lactis; test: Induction of pore formation in Lactococcus lactis NZ9000Cm assessed as increase in florescence intensity at 3 times antibacterial IC50 measured after 200 secs by sytox green-based fluorescence assay relative to control; type: functional
[3] = (§1) Resistance ratio of IC50 for inhibition of Lactococcus lactis ATP-binding cassette transporter NisFEG harboring in Lactococcus lactis NZ9000 assessed as decrease in NisFEG induced resistance measured as increase in growth inhibition to IC50 for growth inhibition of nisin-sensitive Lactococcus lactis NZ9000Cm incubated for 5 hrs by optical density based plate reader assay
[4] = Inhibition of Streptococcus agalactiae COH1 NSR transfected in Lactococcus lactis NZ9000 assessed as decrease in NSR-induced resistance by measuring increase in growth inhibition incubated for 5 hrs by optical density based plate reader assay
[5] = Inhibition of Lactococcus lactis Nis1 harboring in Lactococcus lactis NZ9000 assessed as decrease in Nis1 induced resistance measured as increase in growth inhibition incubated for 5 hrs by optical density based plate reader assay
[6] = as §1, with “for Inhibition” for “for inhibition”, “lactis Nis1” for “lactis ATP-binding cassette transporter NisFEG”, “in Nis1” for “in NisFEG”
[7] = as §1, with “Streptococcus agalactiae COH1 NsrFP transfected” for “Lactococcus lactis ATP-binding cassette transporter NisFEG harboring”, “NsrFP” for “NisFEG”
[8] = as §1, with “Streptococcus agalactiae COH1 NSR transfected” for “Lactococcus lactis ATP-binding cassette transporter NisFEG harboring”, “NSR” for “NisFEG”
[9] = Inhibition of Lactococcus lactis ATP-binding cassette transporter NisFEG harboring in Lactococcus lactis NZ9000 assessed as decrease in NisFEG induced resistance measured as increase in growth inhibition incubated for 5 hrs by optical density based plate reader assay
[10] = Inhibition of Streptococcus agalactiae COH1 NsrFP transfected in Lactococcus lactis NZ9000 assessed as decrease in NsrFP-induced resistance by measuring increase in growth inhibition incubated for 5 hrs by optical density based plate reader assay
[11] = tested on: Lactococcus lactis; test: Induction of pore formation in Lactococcus lactis NZ9000Cm assessed as increase in florescence intensity at 3 times antibacterial IC50 measured after 200 secs by sytox green-based fluorescence assay; type: functional, organism-based

Structure (SMILES) | IC50 [1] [nM] | Activity [2] [%] | Ratio IC50 [3] | IC50 [4] [nM] | IC50 [5] [nM] | Ratio IC50 [6] | Ratio IC50 [7] | Ratio IC50 [8] | IC50 [9] [nM] | IC50 [10] [nM] | Activity [11]
C=C(NC(=O)[C@@H](NC(=O)[C@H](Cc1cnc[nH]1)NC(=O)[C@@H](NC(=O)[C@H](CO)NC(=O)[C@@H]1CS[C@@H](C)[C@@H]2NC(=O)[C@H](C)NC(=O)[C@@H](NC(=O)[C@H](CCCCN)NC(=O)[C@H](CCSC)NC(=O)[C@@H](NC(=O)[C@@H](NC(=O)[C@H](CC(N)=O)NC(=O)[C@@H]3CS[C@@H](C)[C@H](NC(=O)[C@H](CCCCN)NC(=O)[C@@H]4CS[C@@H](C)[C@H](NC(=O)[C@@H]5CSC[C@H](NC(=O)/C(=C/C)NC(=O)[C@@H](N)[C@@H](C)CC)C(=O)N[C@@H]([C@@H](C)CC)C(=O)NC(=C)C(=O)N[C@@H](CC(C)C)C(=O)N5)C(=O)N5CCC[C@H]5C(=O)NCC(=O)N4)C(=O)NCC(=O)N[C@@H](C)C(=O)N[C@@H](CC(C)C)C(=O)N[C@@H](CCSC)C(=O)NCC(=O)N3)[C@@H](C)CC)C(C)C)[C@H](C)SC[C@H](NC2=O)C(=O)N[C@@H](Cc2cnc[nH]2)C(=O)N1)[C@@H](C)CC)C(C)C)C(=O)N[C@@H](CCCCN)C(=O)O | 8.17 | 15 | 13.1 | 102 | 77.3 | 9.46 | 14.8 | 12.4 | 107 | 121 | –
C=C(NC(=O)[C@@H](NC(=O)[C@H](Cc1cnc[nH]1)NC(=O)[C@@H](NC(=O)[C@H](CO)NC(=O)[C@@H]1CS[C@@H](C)[C@@H]2NC(=O)[C@H](C)NC(=O)[C@@H](NC(=O)[C@@H](NC(=O)[C@@H](NC(=O)[C@H](CCCCN)NC(=O)[C@H](CCSC)NC(=O)[C@H](CC(N)=O)NC(=O)[C@@H]3CS[C@@H](C)[C@H](NC(=O)[C@H](CCCCN)NC(=O)[C@@H]4CS[C@@H](C)[C@H](NC(=O)[C@@H]5CSC[C@H](NC(=O)/C(=C/C)NC(=O)[C@@H](N)[C@@H](C)CC)C(=O)N[C@@H]([C@@H](C)CC)C(=O)NC(=C)C(=O)N[C@@H](CC(C)C)C(=O)N5)C(=O)N5CCC[C@H]5C(=O)NCC(=O)N4)C(=O)NCC(=O)N[C@@H](C)C(=O)N[C@@H](CC(C)C)C(=O)N[C@@H](CCSC)C(=O)NCC(=O)N3)[C@@H](C)CC)C(C)C)[C@H](C)SC[C@H](NC2=O)C(=O)N[C@@H](Cc2cnc[nH]2)C(=O)N1)[C@@H](C)CC)C(C)C)C(=O)N[C@@H](CCCCN)C(=O)O | 22.3 | – | 1.66 | 64.8 | 73.2 | 3.29 | 1.99 | 2.91 | 36.9 | 44.4 | Active
C=C(NC(=O)[C@@H](NC(=O)[C@H](Cc1cnc[nH]1)NC(=O)[C@@H](NC(=O)[C@H](CO)NC(=O)[C@@H]1CS[C@@H](C)[C@@H]2NC(=O)[C@H](C)NC(=O)[C@@H](NC(=O)[C@H](CC(N)=O)NC(=O)[C@@H]3CS[C@@H](C)[C@H](NC(=O)[C@H](CCCCN)NC(=O)[C@@H]4CS[C@@H](C)[C@H](NC(=O)[C@@H]5CSC[C@H](NC(=O)/C(=C/C)NC(=O)[C@@H](N)[C@@H](C)CC)C(=O)N[C@@H]([C@@H](C)CC)C(=O)NC(=C)C(=O)N[C@@H](CC(C)C)C(=O)N5)C(=O)N5CCC[C@H]5C(=O)NCC(=O)N4)C(=O)NCC(=O)N[C@@H](C)C(=O)N[C@@H](CC(C)C)C(=O)N[C@@H](CCSC)C(=O)NCC(=O)N3)[C@H](C)SC[C@H](NC2=O)C(=O)N[C@@H](Cc2cnc[nH]2)C(=O)N1)[C@@H](C)CC)C(C)C)C(=O)N[C@@H](CCCCN)C(=O)O | 43.4 | – | 1.66 | 221 | 109 | 2.5 | 4.9 | 5.09 | 72.1 | 213 | inactive
